The record followed here is PMC7491426 (Frontiers in Chemistry, 2020).

The target in data set [1] is T1, HNE (human neutrophil elastase) (Homo sapiens, UniProt P08246).
T1 construct: purchased Calbiochem
T1 sequence (P08246 30-267): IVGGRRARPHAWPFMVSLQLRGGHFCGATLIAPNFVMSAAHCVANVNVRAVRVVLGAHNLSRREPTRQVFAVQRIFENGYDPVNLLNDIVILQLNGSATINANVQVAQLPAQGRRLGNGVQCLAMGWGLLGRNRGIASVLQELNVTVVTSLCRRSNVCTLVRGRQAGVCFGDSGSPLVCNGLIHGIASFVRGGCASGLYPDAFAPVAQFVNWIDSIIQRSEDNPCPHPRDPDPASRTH
As to the kind of experiment: Persistence of HNE inhibition over extended period of time (16 h). The format is biochemical. To be noted: monitored during 16 h in the presence of 10 μM inhibitor. From the text:
The relatively high enzymatic stability of HNE allowed us to evaluate reversibility of the enzyme inhibition over time.

For data set [2], the target named is T1, HNE (human neutrophil elastase). As to the kind of experiment: HNE inhibition assay (fluorogenic substrate cleavage). Type of data set: biochemical. Here is the method:
Compounds were dissolved in 100% DMSO at 5 mM stock concentrations. […] HNE inhibition assays were performed in black flat-bottom 96-well microtiter plates. Briefly, a solution containing 200 mM Tris–HCl, pH 7.5, 0.01% bovine serum albumin, 0.05% Tween®-20, and 20 mU/mL of HNE (Calbiochem) was added to wells containing different concentrations of each compound. The reaction was initiated by addition of 25 μM elastase substrate (N-methylsuccinyl-Ala-Ala-Pro-Val-7-amino-4-methylcoumarin, Calbiochem) in a final reaction volume of 100 μL/well. Kinetic measurements were obtained every 30 s for 10 min at 25°C using a Fluoroskan Ascent FL fluorescence microplate reader (Thermo Electron, MA) with excitation and emission wavelengths of 355 and 460 nm, respectively. For all compounds tested, the concentration of inhibitor that caused 50% inhibition of the enzymatic reaction (IC50) was calculated by plotting % inhibition vs. logarithm of inhibitor concentration (at least six points).

The nature of data set [3]: Spontaneous hydrolysis (chemical stability) in aqueous phosphate buffer. Type of data set: physicochemical. The note with it: for half-life: phosphate buffer, pH 7.3, 0.05 M phosphate buffer, read-out: t1/2 for the spontaneous hydrolysis (converted); for half-life / t1/2 for the spontaneous hydrolysis: pH 7.3, 25°C; for t1/2 for the spontaneous hydrolysis: 0.05 M phosphate buffer. Here is the method: Spontaneous hydrolysis of selected derivatives was evaluated at 25°C in 0.05 M phosphate buffer, pH 7.3. Kinetics of compound hydrolysis was monitored by measuring changes in absorbance spectra over time using a SpectraMax ABS Plus microplate spectrophotometer (Molecular Devices, Sunnyvale, CA). Absorbance (At) at the characteristic absorption maxima of each compound was monitored over time until no further absorbance decreases occurred (A∞). Using these measurements, we created semilogarithmic plots of log(At-A∞) vs. time, and k′ values were determined from the slopes of these plots. Half-conversion times were calculated using t1/2 = 0.693/k′.
Spontaneous hydrolysis rates of the inhibitors were measured in phosphate buffer at pH 7.3 and 25°C.

Where [4] appears, read: mean ± SD of three independent experiments, read-out: IC50 (HNE inhibitory activity).
Where [5] appears, read: restated in Table 5 beside docking geometry, read-out: IC50.

Values joined by “and” are separate entries in the source; they are usually repeats but may differ in a detail not shown here. Identical values can stand only once. Like-named read-outs stand apart in the source and are kept apart here.

By melting point is commonly meant the temperature of the solid-liquid transition. As a reminder, the IC50 is the concentration that gives 50% inhibition. `CC(C)(C)C(=O)Oc1ccc(S(=O)(=O)n2nc(C#N)c3cccnc32)cc1` [Compound 3l, 4-[(3-Cyano-1H-pyrazolo[3,4-b]pyridin-1-yl)sulfonyl]phenyl pivalate] gave a melting point of 166 to 169 °C. Besides, the “Remaining HNE activity” value in data set [1] is given as 4.5 ± 1.7%. Besides, the IC50 in data set [2] (setting [4]) was determined as 66 ± 9 nM. Moreover, in data set [3], the half-life is 3.5 h.

Molecule `CC(C)(C)C(=O)Oc1ccc(S(=O)(=O)n2nc(C#N)c3ccccc32)cc1` [Compound 3d, 4-[(3-Cyano-1H-indazol-1-yl)sulfonyl]phenyl pivalate] registered a melting point of 155 to 158 °C. The “Remaining HNE activity” value in data set [1] was found to be 4.3 ± 0.3%. In data set [2] (setting [4]), the IC50 was found to be 76 ± 11 nM. Also, the half-life in data set [3] was 6.1 h.

Molecule `CCOC(=O)c1nn(C)c2ccc(NS(=O)(=O)c3ccc(OC(=O)C(C)(C)C)cc3)cc12` [Compound 7d, Ethyl 1-methyl-5-{[4-(pivaloyloxy)phenyl]sulfonamido}-1H-indazole-3-carboxylate] registered a melting point of 130 to 133 °C. For the same molecule, the “Remaining HNE activity” value in data set [1] came out at 9.1 ± 2.5%. The IC50 in data set [2] (setting [4]) is < 100 nM and 86 nM. Besides, the IC50 in data set [2] (setting [5]) amounted to 86 nM. In data set [3], the “t1/2 for the spontaneous hydrolysis” value was 16.5 h and the half-life is above 9 h.

`CCOC(=O)c1cn(S(=O)(=O)c2ccc(OC(=O)C(C)(C)C)cc2)c2ccccc12` [Compound 3a, Ethyl 1-{[4-(pivaloyloxy)phenyl]sulfonyl}-1H-indole-3-carboxylate] displayed a melting point of 118 to 121 °C. In addition, the “Remaining HNE activity” value in data set [1] was determined as 5.5 ± 1.8%. Also, in data set [2] (setting [4]), the IC50 was < 100 nM and 30 nM. In addition, the IC50 in data set [2] (setting [5]) is 30 nM. In data set [3], the “t1/2 for the spontaneous hydrolysis” value is given as 9.6 h and the half-life was above 9 h.

For the molecule `CCOC(=O)c1nn(C(=O)c2cccc(C)c2)c2ccc(NS(=O)(=O)c3ccc(OC(=O)C(C)(C)C)cc3)cc12` [Compound 7e, Ethyl 1-(3-methylbenzoyl)-5-{[4-(pivaloyloxy)phenyl]sulfonamido}-1H-indazole-3-carboxylate], the melting point was in the range of 180 to 182 °C. For the same molecule, in data set [2] (setting [4]), the IC50 was 460 ± 120 nM. For the same molecule, in data set [2] (setting [5]), the IC50 stood at 460 nM. Moreover, the half-life in data set [3] was 5.8 h.

With `CCOC(=O)c1nn(S(=O)(=O)c2ccc(OC(=O)C(C)(C)C)cc2)c2ccc([N+](=O)[O-])cc12` [Compound 3g, Ethyl 5-nitro-1-{[4-(pivaloyloxy)phenyl]sulfonyl}-1H-indazole-3-carboxylate], the melting point fell in the range of 185 to 188 °C. For the same molecule, in data set [1], the “Remaining HNE activity” value amounted to 20.1 ± 1.6%. For the same molecule, the IC50 in data set [2] (setting [4]) came out at 23 ± 10 nM. Besides, the half-life in data set [3] is 1.8 h.

For the molecule `CC(C)(C)C(=O)Oc1ccc(S(=O)(=O)n2nc(C3CC3)c(=O)c3ccccc32)cc1` [Compound 9b, 4-[(3-Cyclopropyl-4-oxocinnolin-1(4H)-yl)sulfonyl]phenyl pivalate], the melting point lay within 121 to 123 °C. Besides, the “Remaining HNE activity” value in data set [1] amounted to 9.2 ± 2.5%. Also, the IC50 in data set [2] (setting [4]) came to 78 ± 18 nM. In addition, the half-life in data set [3] was 1.9 h.

Consider `Cc1cccc(C(=O)Nc2nn(S(=O)(=O)c3ccc(OC(=O)C(C)(C)C)cc3)c3ccccc23)c1` [Compound 4, 4-{[3-(3-Methylbenzamido)-1H-indazol-1-yl]sulfonyl}phenyl pivalate], for which the “Remaining HNE activity” value in data set [1] is reported as 8.6 ± 1.7%. For the same molecule, the IC50 in data set [2] (setting [4]) worked out at 62 ± 12 nM. Also, the half-life in data set [3] was 6.4 h.

In turn, `CCOC(=O)c1cn(S(=O)(=O)c2ccc(OC(=O)C(C)(C)C)cc2)c2ccc([N+](=O)[O-])cc12` [Compound 3b, Ethyl 5-nitro-1-{[4-(pivaloyloxy)pheny]sulfonyl}-1H-indole-3-carboxylate] displayed a melting point of 170 to 173 °C. The “Remaining HNE activity” value in data set [1] stood at 20.5 ± 1.7%. Moreover, the IC50 in data set [2] (setting [4]) amounted to 25 ± 8 nM. Also, the half-life in data set [3] was 6.1 h.

For the molecule `Cn1nc(C#N)c2cc(NS(=O)(=O)c3ccc(OC(=O)C(C)(C)C)cc3)ccc21` [Compound 7c, 4-[N-(3-Cyano-1-methyl-1H-indazol-5-yl)sulfamoyl]phenyl pivalate], the melting point lay in the range of 162 to 165 °C. Moreover, the IC50 in data set [2] (setting [4]) came to 394 ± 38 nM. Further, the half-life in data set [3] was 1.5 h.

`CC(C)(C)C(=O)Oc1ccc(S(=O)(=O)n2cc(-c3ccccc3)c(=O)o2)cc1` [Compound 11, 4-[(5-Oxo-4-phenylisoxazol-2(5H)-yl)sulfonyl]phenyl Pivalate]: the melting point lay within 166 to 168 °C. For the same molecule, the IC50 in data set [2] (setting [4]) was 290 ± 40 nM.

`CC(C)(C)C(=O)Oc1ccc(S(=O)(=O)n2cc(C#N)c3cccnc32)cc1` [Compound 3i, 4-[(3-Cyano-1H-pyrrolo[2,3-b]pyridin-1-yl]sulfonyl)phenyl pivalate]: the melting point lay in the range of 176 to 179 °C. The “Remaining HNE activity” value in data set [1] turned out to be 2.6 ± 0.5%. The IC50 in data set [2] (setting [4]) worked out at 55 ± 12 nM. Further, the half-life in data set [3] was 1.8 h.

For the molecule `CC(C)(C)C(=O)Oc1ccc(S(=O)(=O)Nc2ccccc2C(=O)NCC(=O)O)cc1` [Sivelestat, reference compound], in data set [1], the “Remaining HNE activity” value is on record as 3.7 ± 0.1%.

Regarding `Cc1c(-c2ccccc2)c(=O)on1S(=O)(=O)c1ccc(OC(=O)C(C)(C)C)cc1` [G, reference compound], the “Chemical stability in aqueous buffer” value in data set [3] (data not shown) is recorded as “excellent chemical stability in aqueous buffer”. The half-life in data set [3] is 5.8 h.

With `CC(C)(C)C(=O)Oc1ccc(S(=O)(=O)n2cc(C#N)c3ccccc32)cc1` [Compound 3c, 4-[(3-Cyano-1H-indol-1-yl)sulfonyl]phenyl pivalate], the melting point is 133 to 136 °C. The “Remaining HNE activity” value in data set [1] is 2.0 ± 0.4%. For the same molecule, in data set [2] (setting [4]), the IC50 is < 100 nM and 49 nM. Moreover, in data set [3], the “t1/2 for the spontaneous hydrolysis” value is reported as 14.4 h and the half-life was above 9 h.

Consider `CCOC(=O)c1nn(S(=O)(=O)c2ccc(OC(=O)C(C)(C)C)cc2)c2ccccc12` [Compound 3f, Ethyl 1-{[4-(pivaloyloxy)phenyl]sulfonyl}-1H-indazole-3-carboxylate], for which the melting point fell in the range of 132 to 135 °C. Further, the “Remaining HNE activity” value in data set [1] came to 5.9 ± 1.2%. Further, the IC50 in data set [2] (setting [4]) is < 100 nM and 15 nM. In data set [3], the “t1/2 for the spontaneous hydrolysis” value was determined as 10.5 h and the half-life was above 9 h.

Molecule `CC(C)(C)C(=O)Oc1ccc(S(=O)(=O)n2nc(C#N)c3cc([N+](=O)[O-])ccc32)cc1` [Compound 3e, 4-[(3-Cyano-5-nitro-1H-indazol-1-yl)sulfonyl]phenyl pivalate] came in with a melting point of 183 to 186 °C. In addition, the “Remaining HNE activity” value in data set [1] stood at 41.7 ± 3.2%. Further, the IC50 in data set [2] (setting [4]) was found to be 93 ± 27 nM. Further, the half-life in data set [3] is 0.4 h.

On to `Cc1noc(-c2cn(S(=O)(=O)c3ccc(OC(=O)C(C)(C)C)cc3)c3ncccc23)n1` [Compound 3j, 4-{[3-(3-Methyl-1,2,4-oxadiazol-5-yl)-1H-pyrrolo[2,3-b]pyridin-1-yl]sulfonyl}phenyl pivalate], for which the melting point fell in the range of 164 to 167 °C. In addition, in data set [1], the “Remaining HNE activity” value stood at 26.2 ± 3.4%. Further, the IC50 in data set [2] (setting [4]) was 43 ± 14 nM. Also, in data set [3], the half-life was 2.5 h.

For `CC(C)(C)C(=O)Oc1ccc(S(=O)(=O)n2nc(C(F)(F)F)c3cccnc32)cc1` [Compound 3k, 4-{[3-(Trifluoromethyl)-1H-pyrazolo[3,4-b]pyridin-1-yl]sulfonyl}phenyl pivalate], the melting point was in the range of 135 to 138 °C. For the same molecule, in data set [2] (setting [4]), the IC50 was determined as 135 ± 37 nM. In data set [3], the half-life is 1.3 h.

For `CCOC(=O)c1cn(C(=O)c2cccc(C)c2)c2ccc(NS(=O)(=O)c3ccc(OC(=O)C(C)(C)C)cc3)cc12` [Compound 7b, Ethyl 1-(3-methylbenzoyl)-5-{[4-(pivaloyloxy)phenyl]sulfonamido}-1H-indole-3-carboxylate], the melting point was 172 to 175 °C. For the same molecule, in data set [2] (setting [4]), the IC50 is 5200 ± 140 nM. The IC50 in data set [2] (setting [5]) came to 5200 nM. Further, the half-life in data set [3] is 5.3 h.

Consider `CCOC(=O)c1cn(C)c2ccc(NS(=O)(=O)c3ccc(OC(=O)C(C)(C)C)cc3)cc12` [Compound 7a, Ethyl 1-methyl-5-{[4-(pivaloyloxy)phenyl]sulfonamido}-1H-indole-3-carboxylate], for which the IC50 in data set [2] (setting [4]) is 233 ± 76 nM. In data set [3], the half-life is 6.8 h.
